Tests used:
Assay in all cases: relative viability (nuclei count vs DMSO), 5 days (fraction); higher = more cells survive
KIN001-266 + Luminespib = compound: CCN1CCC(CC1)N2C=C(N=N2)CNC3=CC4=C(C(=CN=C4C(=C3)Cl)C#N)NC5=CC(=C(C=C5)F)Cl [KIN001-266] + CCNC(=O)c1noc(-c2cc(C(C)C)c(O)cc2O)c1-c1ccc(CN2CCOCC2)cc1 [Luminespib] (partner 0.01 µM)
Outline: (§1)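 For relative viability, nuclei counts in treated wells were divided by those in vehicle wells. Lung cancer cell lines had been pin-tool dosed in 1536-well plates the day after seeding and cultured for 5 days, then fixed and stained in one step (final 0.05% Triton X-100, 1% formaldehyde, 1 ug/ml Hoechst) and imaged at 4×. Doses were one drug alone or a fixed anchor-drug dose plus five library-drug doses (not always all listed) in √10 steps, and values are duplicate-plate medians.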

KIN001-266 + Dasatinib = compound: CCN1CCC(CC1)N2C=C(N=N2)CNC3=CC4=C(C(=CN=C4C(=C3)Cl)C#N)NC5=CC(=C(C=C5)F)Cl [KIN001-266] + Cc1nc(Nc2ncc(C(=O)Nc3c(C)cccc3Cl)s2)cc(N2CCN(CCO)CC2)n1 [Dasatinib] (partner 0.075 µM)
Outline: as §1

KIN001-266 + Bortezomib = compound: CCN1CCC(CC1)N2C=C(N=N2)CNC3=CC4=C(C(=CN=C4C(=C3)Cl)C#N)NC5=CC(=C(C=C5)F)Cl [KIN001-266] + CC(C)C[C@H](NC(=O)[C@H](Cc1ccccc1)NC(=O)c1cnccn1)B(O)O [Bortezomib] (partner 0.002 µM)
Outline: as §1

KIN001-266 + Navitoclax = compound: CCN1CCC(CC1)N2C=C(N=N2)CNC3=CC4=C(C(=CN=C4C(=C3)Cl)C#N)NC5=CC(=C(C=C5)F)Cl [KIN001-266] + CC1(C)CCC(c2ccc(Cl)cc2)=C(CN2CCN(c3ccc(C(=O)NS(=O)(=O)c4ccc(N[C@H](CCN5CCOCC5)CSc5ccccc5)c(S(=O)(=O)C(F)(F)F)c4)cc3)CC2)C1 [Navitoclax] (partner 0.5 µM)
Outline: as §1

Cell Line	relative viability (KIN001-266 + Luminespib; first compound 0.08 µM)	relative viability (KIN001-266 + Luminespib; first compound 0.253 µM)	relative viability (KIN001-266 + Luminespib; first compound 0.8 µM)	relative viability (KIN001-266 + Luminespib; first compound 2.53 µM)	relative viability (KIN001-266 + Luminespib; first compound 8 µM)	relative viability (KIN001-266 + Dasatinib; first compound 0.08 µM)	relative viability (KIN001-266 + Dasatinib; first compound 0.253 µM)	relative viability (KIN001-266 + Dasatinib; first compound 0.8 µM)	relative viability (KIN001-266 + Dasatinib; first compound 2.53 µM)	relative viability (KIN001-266 + Dasatinib; first compound 8 µM)	relative viability (KIN001-266 + Bortezomib; first compound 0.08 µM)	relative viability (KIN001-266 + Bortezomib; first compound 0.253 µM)	relative viability (KIN001-266 + Bortezomib; first compound 0.8 µM)	relative viability (KIN001-266 + Bortezomib; first compound 2.53 µM)	relative viability (KIN001-266 + Bortezomib; first compound 8 µM)	relative viability (KIN001-266 + Navitoclax; first compound 0.08 µM)	relative viability (KIN001-266 + Navitoclax; first compound 0.253 µM)	relative viability (KIN001-266 + Navitoclax; first compound 0.8 µM)	relative viability (KIN001-266 + Navitoclax; first compound 2.53 µM)	relative viability (KIN001-266 + Navitoclax; first compound 8 µM)
NCI-H2009	1.04	0.969	1.05	0.983	0.881	0.382	0.313	0.302	0.274	0.201	1.02	1.06	1.09	0.95	0.658	1.14	1.13	1.16	1.07	1.1
NCI-H2023	0.738	0.698	0.764	0.696	0.865	0.608	0.555	0.63	0.526	0.533	1.08	1.1	1.2	1.03	0.76	0.956	1	1.08	0.93	1.05
NCI-H2085	0.412	0.437	0.404	0.434	0.429	0.221	0.234	0.241	0.239	0.244	1.01	1.04	0.888	1.14	0.916	1.15	1.25	1.08	1.13	0.906
NCI-H2087	0.199	0.156	0.173	0.165	0.184	0.914	0.887	0.866	0.87	0.472	0.761	0.87	0.717	0.719	0.609	1.17	0.93	0.916	0.97	0.56
NCI-H2126	0.868	0.871	0.906	0.865	0.978	0.656	0.631	0.599	0.624	0.589	1.16	1.12	1.15	1.13	1.14	0.844	0.86	0.863	0.813	0.855
NCI-H2228	0.136	0.13	0.145	0.172	0.112	0.544	0.538	0.511	0.434	0.451	1.03	0.935	1.09	1.33	0.796	0.738	0.937	1.4	0.851	0.514
NCI-H2347	0.846	0.009	0.41	0.358	0.269	0.34	0.294	0.258	0.329	0.241	1.16	1.03	0.905	0.858	0.611	0.869	0.747	0.787	0.834	0.453
NCI-H2405	0.743	0.712	0.628	0.701	0.516	0.207	0.241	0.233	0.223	0.202	0.99	1	0.984	0.925	0.809	1.02	1	0.901	0.881	0.4

— the supplement of paper PMC10307832
